The source of these data is patent US7291600B2, “Non-T cell binding peptides and their uses” (priority 2002, dated 2007).

Several values for one entry are separate records, joined by “and”; a condition that tells them apart may be missing. Equal values may be shown once. Entries after “also recorded” stand apart in the source; their conditions may differ. No end group written: not given here. *: point of attachment. Myristoyl = CCCCCCCCCCCCCC(=O)*

Assay [1] has as its system TNFα. The experiment in a line: TNFα concentration in peripheral blood of CIA rats (ELISA). It counts as in vivo, Wistar rats. As to the method: (§1) The arthritis rats were randomly divided into 4 groups from Day 4 to Day 7 after arthritis induced therein. There were 3 treatment groups and one control group. Each group consisted of 10 rats. Non-T cell binding peptide 267A was subcutaneously injected into the base of tail of each rat every 3 days. The peptides were dissolved in sterile distilled water before injection. The concentrations used in the 3 treatment groups were 100 μg/ml, 500 μg/ml and 1000 μg/ml respectively, 100 μl for each rat, and the control group received sterile distilled water only. The volume change of right feet was measured by water-expelling method every day. Using the aforementioned method of arthritis evaluation, the arthritis scores were given every day based on the number of joints with arthritis. The rats were killed 18 days after treatment. The peripheral blood was collected. The serum concentrations of the respective cytokines were detected using ELISA kits of TNFα and IL-2 (JingMei Biotech Co. Ltd, ShenZhen, P.R.C). In the meanwhile, the joints of the right limb were detached, fixed, decalcified, sectioned and subjected to HE staining.

For assay [2], the system named is T cell activation (L57.23 cell with 3.19 cell; Priess cell with 3838 cell). The experiment in a line: T cell activation assay: antigen presenting cells, peptide and T cell clones co-incubated; IL-2 in supernatant read by CTLL proliferation (MTT). It counts as cell-based. The settings on record: for inhibition of the T cell activation effects of wild type DRβ1 binding peptide: co-incubated with wild type peptide and T cell activation system, concentration dependent, FIG. 4.

For assay [3], the system named is collagen-induced arthritis (CIA) in Wistar rats. Briefly: Collagen-induced arthritis (CIA) induced by bovine CII, treated by subcutaneous peptide injection. It is filed as in vivo. Particulars: for number of swollen joints, Average: * significantly reduced compared with the control group (p < 0.01), control 6.2.
Assay [4] shares this test system. The assay is described as above. It is filed as in vivo. The settings on record: for suppression / alleviation of arthritis in rats: CIA rats, result in words. As to the method:
In the animal experiment protocol of the present invention, collagen-induced arthritis (CIA) in Wistar rats was induced by bovine CII. The non-T cell binding peptides of the present invention were used to treat the arthritis rats.
The experimental arthritis model used in the present invention is collagen-induced arthritis (CIA) which is recognized internationally. The experimental animals used were American Wistar rats, which belong to a blocking colony. They were cultured successfully by Wistar Institute of USA in 1907. They are among the species that were introduced into our country earliest and were used most widely. The rats used in this experiment were all cultured in the animal center of People's Hospital, Peking University (SPF degree II). The rats were cultured in the polyacylene cages cushioned by serrago. The lightness/darkness cycle was maintained as 12 h/12 h. The water and food were freely available to the rats. All the rats used in the experiment were male, 8-10 weeks of age, body weight 180±10 g. All the protocols related to animals in the experiment were in accordance with Chinese Experimental Animal Regulations.
The bovine type II collagen (catalogue number: C11188) was bought from Sigma Co. Ltd. It was dissolved in acetic acid to make a solution with the final concentration of 8 mg/ml. Then the solution was emulsified with complete Freund's adjuvant (Detroit, USA) of the equal volume. 100 μl of the emulsified solution was injected into the footpad of the right limb of each Wistar rat. The injection dose was […]. Thus the arthritis model of Wistar rats was successfully established.
The swelling of metatarsophalangeal joints and interphalangeal joints was found on all the rats about 15 days after the induction of arthritis in Wistar rats with CII. A 0-16 scale was used to evaluate the extent of arthritis. Each of the 4 paws was assigned a score using a 0-4 scale, wherein zero=no joint swelling, 1=swelling of one joint, 2=swelling of 2 joints, 3=swelling of 3 joints, and 4=swelling of 4 joints, which is the swelling of the whole paw. Four paws were scored respectively, and these scores were summed up to give a total score. Beginning 2 days after the immunization, the rats were subjected to an inspection every day until the experiment had been finished.
as §1

The test system of assay [5] is T cell activation (L57.23 cell with 3.19 cell; Priess cell with 3838 cell). Briefly: T cell activation assay: antigen presenting cells, peptide and T cell clones co-incubated; IL-2 in supernatant read by CTLL proliferation (MTT). It counts as cell-based. The settings on record: FIG. 3; for effect (stimulation) on T cell activation compared with wild type CII peptide: peptide alone with antigen presenting cells and T cells, 48 hours. The source says: Antigen polypeptides are expressed through antigen presenting cells and activate T cells, resulting in the production of inflammation factors in vivo, and further resulting in the typical pathologic changes of rheumatoid arthritis. In the experiment, the inhibition effects of non-T cell binding peptides on T cell activation were detected by measuring T cell proliferation and Interleukin (IL)-2 level. Two sets of systems of antigen presenting and T cell activation, which are recognized internationally, are used in the research.
Wherein one set of antigen presenting and T cell activation system is composed of L57.23 cell and 3.19 cell, and the other set of system is composed of Priess cell and 3838 cell. By comparing the difference in the effects of said seven non-T cell binding peptides on antigen presenting and T cell activation, non-T cell binding peptides which have significant inhibition effect(s) on T cell activation were screened.
Firstly, the antigen presenting cells, different non-T cell binding peptides (10 μg/ml) and corresponding T cells were added into the reaction system and co-incubated at 37° C. for 48 hours. The supernatant was obtained and added into well-grown IL-2 dependent cells (CTLL). The CTLL cell proliferation was detected by using titrazolium salt method (MTT). Thus the inhibition effects of non-T cell binding peptides on T cell activation were determined.

Where [6] appears, read: 10 mg group, right hind foot, individual rats.
Where [7] appears, read: 50 mg group, right hind foot, individual rats.
The mark [8] stands for this setting: Day 8, 10, 12 and 14, three treatment groups 100, 500, 1000 μg/ml, 100 μl s.c. every 3 days.

Consider “FKGEAGPKGE (Myristoyl-FKGEAGPKGE) [267A, amino-terminal linked to myristic acid]”, for which the “concentration of TNFα in peripheral blood vs control group” value in assay [1] (100 μg/ml treated group, p<0.05, FIG. 7) is reported as “significantly lower”; in assay [1] (the other two treatment groups (500 and 1000 μg/ml)), “No significant variety”. Besides, in assay [2], the “inhibition of the T cell activation effects of wild type DRβ1 binding peptide” value is “significant effects”. In addition, the “number of swollen joints, Average” value is on record as 3.15* in assay [3] (10 mg group average) and 3.25* in assay [3] (50 mg group average). Moreover, the Hind foot volume in assay [3] (setting [6]) was 1.2 ml (2×) and 1.5 ml and 1.4 ml and 1.3 ml (5×) and 1.1 ml; in assay [3] (setting [7]) it was 1.4 ml (5×) and 1.7 ml and 1.3 ml and 1.1 ml and 1.6 ml (2×). Also, the “number of swollen joints” value in assay [3] (setting [6]) is 2 (2×) and 4 (3×) and 3 (2×) and 1 (2×) and 6; in assay [4] (setting [7]), 4 (2×) and 6 (2×) and 2 and 1 (3×) and 3 (2×). Further, the “swelling of the right feet” value in assay [4] (3 treatment groups, within the first 2 weeks after treatment) is reported as “alleviated”. The “difference among the 3 treatment groups in right foot swelling ratios and arthritis scores” value in assay [4] (100, 500 and 1000 μg/ml groups, Day 8, 10, 12 and 14) is reported as “no significant difference”. For the same substance, in assay [4], the “suppression / alleviation of arthritis in rats” value was “significant effects; also recorded: significantly suppress arthritis in rats and alleviate the swelling of joints, and shorten the disease course; also recorded: significantly alleviated”. In addition, the “arthritis score vs control group” value in assay [4] (setting [8]) is “significantly lower”. The “swelling ratio of right feet vs control group” value in assay [4] (setting [8]) is reported as “significantly lower”. For the same substance, the “remission ratio of CIA vs control group” value in assay [4] (three treatment groups, Day 8 and Day 16 after treatment, p<0.05) is listed as “remission ratio(s) of CIA in the control group are significantly lower than that in the three treatment groups; also recorded: significantly higher”.

“FKGEGAGAGE (Myristoyl-FKGEGAGAGE) [Mut 267-270, amino-terminal linked to myristic acid]”: in assay [5], the “effect (stimulation) on T cell activation compared with wild type CII peptide” value (shortened to “effect … compared with wild type CII peptide”) is “none of polypeptides Mut 267-270, Mut 268-270, Mut 269-270, 269A and 270A has significant effect on T cell activation”. The “inhibition of the T cell activation effects of wild type DRβ1 binding peptide” value in assay [2] is “significant effects”. In assay [4], the “suppression / alleviation of arthritis in rats” value is listed as “significant effects”.

“FKGEQAGAGE (Myristoyl-FKGEQAGAGE) [Mut 268-270, amino-terminal linked to myristic acid]”: the “effect … compared with wild type CII peptide” value in assay [5] is “none of polypeptides Mut 267-270, Mut 268-270, Mut 269-270, 269A and 270A has significant effect on T cell activation”.

“FKGEQGAAGE (Myristoyl-FKGEQGAAGE) [Mut 269-270, amino-terminal linked to myristic acid]”: in assay [5], the “effect … compared with wild type CII peptide” value was “none of polypeptides Mut 267-270, Mut 268-270, Mut 269-270, 269A and 270A has significant effect on T cell activation”.

In the case of “FKGEQGAKGE (Myristoyl-FKGEQGAKGE) [269A, amino-terminal linked to myristic acid]”, the “effect … compared with wild type CII peptide” value in assay [5] is “none of polypeptides Mut 267-270, Mut 268-270, Mut 269-270, 269A and 270A has significant effect on T cell activation”.

Turning to “FKGEQGPAGE (Myristoyl-FKGEQGPAGE) [270A, amino-terminal linked to myristic acid]”, in assay [5], the “effect … compared with wild type CII peptide” value is “none of polypeptides Mut 267-270, Mut 268-270, Mut 269-270, 269A and 270A has significant effect on T cell activation”.

With “wild type DRβ1 binding peptide: wild type CII263-272 polypeptide (F K G E Q G P K G E), contains the antigen epitope of Collagen type II (FKGEQGPKGE) [reference compound]”, the “concentration of IL-2 in the supernatant” value in assay [5] (non-T cell binding peptides compared with wild type peptide, p<0.01) was “high concentration of IL-2”. For the same substance, in assay [2] (at 400, 200, 80, 40 and 20 μg/ml), the “stimulation of T cell proliferation” value was “able to stimulate T cell proliferation”.
